In patent US8703813B2, “Compound with spiro chiral carbon backbone, preparation method thereof, and pharmaceutical composition containing the same” (SNU R & DB Foundation, priority 2008, dated 2014):

Experiments:
C3H/10T1/2 cells [1] = assay: Adipocyte differentiation inhibitory ability (Oil Red O staining); format: cell-based, mouse; settings: C3H/10T1/2, 10 μg/ml
Method: C3H/10T1/2 cells, which are mouse mesenchymal progenitor cells purchased from ATCC, were diluted in DMEM (Dulbecco's Modified Eagle Medium) medium containing 5.958 g/L HEPES, 3.7 g/L sodium bicarbonate and 10% FBS (fetal bovine serum), and cultured in 24-well culture plates at a density of 4×10^4 cells/well, in the presence of 5% CO2 at 37° C. for 2 days. When the cultured cells were grown to 90˜100% confluency in the culture plates, the cells were cultured in DMEM medium containing 10% FBS, to which 5μ/ml insulin, 1 μM dexamethason, and 5 μM troglitazone were added, in the presence of 5% CO2 at 37° C. for 8 days, to induce differentiation into adipocyte. The medium was exchanged every other day during differentiation. The C3H/10T1/2 cell line, in which differentiation into the adipocyte was induced, was fixed with 3.7% formaldehyde at room temperature for 30 minutes. An oil Red O solution dissolved in isopropanol at a concentration of 0.5% was diluted in distilled water at a ratio of 6:4, filtered through a 0.2 μm filter, and poured to the fixed cell line, which was stained for 1 hour. In order to observe only the cells differentiated into the adiopocyte, the dye solution was removed and the cells were washed with distilled water two times.
116V specimen extracted from sponge was dissolved in DMSO solvent, and allowed to treat C3H/10T1/2 cell lines, which are mouse mesenchymal progenitor cells, at concentrations of 1, 2.5, 5, 10, and 20 μg/ml. […] Then, after specimens of the compound 1 (1163), the compound 2 (1162), the compound 3 (1161), and the compound 4 (1164), which were purely separated from the 116V and 116VI species were obtained, the same experiment was performed. […] Remarkable cytotoxicity was not observed in each of the specimens during differentiation of adipocytes (FIG. 8).

[2] = Solubility in organic solvents; format: physicochemical
C3H/10T1/2 cells [3] = assay: Osteoblast formation activity (calcium deposition assay, Alizarin Red S); format: cell-based, mouse; settings: for osteoblast differentiation ability: C3H/10T1/2, calcium deposition; for concentration of maximum osteoblast differentiation activity: C3H/10T1/2, tested 1-20 ug/ml; for concentration at which cytotoxicity was observed: C3H/10T1/2 during osteoblast differentiation
Method: C3H/10T1/2 cells, which are mouse mesenchymal progenitor cells purchased from ATCC, were diluted in DMEM (Dulbecco's Modified Eagle Medium) medium containing 5.958 g/L HEPES, 3.7 g/L sodium bicarbonate, and 10% FBS (fetal bovine serum), and cultured in 24-well culture plates at a density of 4×10^4 cells/well, in the presence of 5% CO2 at 37° C. for 2 days. The cultured cells were grown to 90˜100% confluency in the culture plates, the cells were cultured in DMEM medium containing 10% FBS, to which 10 mM of β-glycerophosphate and 50μ/ml of ascorbic acid were added, in the presence of 5% CO2 at 37° C. for 6 days, to induce differentiation into osteoblast. The medium was exchanged every other day during differentiation. The C3H/10T1/2 cell line, in which differentiation into the osteoblast was induced, was washed with PBS (Phosphate Buffered Saline) once, and fixed with 70% ethanol at 20° C. for 1 hour. The cells after fixing were washed with cold PBS three times, and stained with 40 mM Alizarin Red S dye solution at room temperature for 20 minutes. The dye solution was removed and the cells were washed with distilled water three times in order to selectively observe only the cells differentiated into the osteoblast.
An aliquot 116V and an aliquot 116VI extracted and partitioned from sponges are dissolved in a DMSO solvent, and used to treat the C3H/10T1/2 cell line, mesenchymal progenitor cells, at concentrations of 1, 2.5, 5, 10, and 20 ug/ml. […] Since then, the same experiment was performed on the compound (1163), the compound 2 (1162), the compound 3 (1161), and the compound 4 (1164), which were purely separated from the aliquots 116V and 116VI, and as a result, it could be confirmed that the osteoblast differentiation ability was increased in the compounds 1, 3, and 4. […] To study a mechanism with respect to osteoblast differentiation ability, the C3H/10T1/2 cell lines were treated with the compound 1 and the compound 4 for 6 days, respectively. […] Also, the C3H/10T1/2 cell lines were treated with the compound 1 and the compound 4 for 6 days, respectively. […] Furthermore, it could be ascertained that combining of Runx2 and TAZ proteins was increased by treatment of the compounds and thus the activity of Runx2-meditated transcription was increased. The compound 5, which is an ester derivative of the compound 1 (1163), was synthesized in order to prepare a material having more excellent bioactivity, and the structure of the compound 5 obtained thus was determined. […] Therefore, the compounds of the present invention and derivatives thereof are expected to promote the differentiation of the osteoblast and thus play an innovative role in treatment of osteoporosis.

Runx2, Osteocalcin, Msx2 = assay: Real time PCR of osteoblast differentiation mark factors; format: cell-based, mouse; settings: C3H/10T1/2 treated for 6 days, RTPCR
Method: (§1) An aliquot 116V and an aliquot 116VI extracted and partitioned from sponges are dissolved in a DMSO solvent, and used to treat the C3H/10T1/2 cell line, mesenchymal progenitor cells, at concentrations of 1, 2.5, 5, 10, and 20 ug/ml. […] Since then, the same experiment was performed on the compound (1163), the compound 2 (1162), the compound 3 (1161), and the compound 4 (1164), which were purely separated from the aliquots 116V and 116VI, and as a result, it could be confirmed that the osteoblast differentiation ability was increased in the compounds 1, 3, and 4. […] To study a mechanism with respect to osteoblast differentiation ability, the C3H/10T1/2 cell lines were treated with the compound 1 and the compound 4 for 6 days, respectively. […] Also, the C3H/10T1/2 cell lines were treated with the compound 1 and the compound 4 for 6 days, respectively. […] Furthermore, it could be ascertained that combining of Runx2 and TAZ proteins was increased by treatment of the compounds and thus the activity of Runx2-meditated transcription was increased. The compound 5, which is an ester derivative of the compound 1 (1163), was synthesized in order to prepare a material having more excellent bioactivity, and the structure of the compound 5 obtained thus was determined. […]

Runx2 and TAZ = assay: Western blot of osteoblast differentiation mark factors; format: cell-based, mouse; settings: C3H/10T1/2 treated for 6 days
Method: as §1

| SMILES | adipocyte differentiation ability (C3H/10T1/2 cells [1]) | Solubility [2] | osteoblast differentiation ability (C3H/10T1/2 cells [3]) | concentration of maximum osteoblast differentiation activity (C3H/10T1/2 cells [3]) [µg/mL] | concentration at which cytotoxicity was observed (C3H/10T1/2 cells [3]) [ng/mL] | transcription degree of differentiation mark factors (Runx2, Osteocalcin, Msx2, etc.) (Runx2, Osteocalcin, Msx2) | protein expression of Runx2 and TAZ (Runx2 and TAZ) |
| --- | --- | --- | --- | --- | --- | --- | --- |
| CC(=O)OCC1=C[C@@]2(C=C(C)C[C@H](/C=C(\C)CCC=C(C)C)O2)O[C@H]2C=C(C)C(=O)C[C@@H]12 [Compound 2] | remarkably decreased | Easily Dissolved in Organic Solvent of Acetone, Methanol, DMSO, etc. |  |  |  |  |  |
| CC(=O)O[C@@H]1C[C@H]2C(CO)=C[C@@]3(C=C(C)C[C@H](/C=C(\C)CCC=C(C)C)O3)O[C@H]2C=C1C [Compound 3] | remarkably decreased | Easily Dissolved in Organic Solvent of Acetone, Methanol, DMSO, etc. | increased | 2.5 | > 2500 |  |  |
| CC(=O)O[C@H]1C[C@H]2C(CO)=C[C@@]3(C=C(C)C[C@H](/C=C(\C)CCC=C(C)C)O3)O[C@H]2C=C1C [Compound 4] | remarkably decreased | Easily Dissolved in Organic Solvent of Acetone, Methanol, DMSO, etc. | increased | 5 | > 5000 | remarkably increased | increased |
| CCCC(=O)OCC1=C[C@@]2(C=C(C)C[C@H](/C=C(\C)CCC=C(C)C)O2)O[C@H]2C=C(C)C(=O)C[C@@H]12 [Compound 5] |  |  | promoted differentiation of the osteoblast in a similar degree as that of the compound 1 |  |  |  |  |
| CC1=C[C@@]2(C=C(CO)[C@@H]3CC(=O)C(C)=C[C@@H]3O2)O[C@@H](/C=C(\C)C/C=C/C(C)(C)O)C1 [Compound 9] |  | Easily Dissolved in Organic Solvent of Acetone, Methanol, DMSO, etc. |  |  |  |  |  |
| C=C(C)C(O)CC/C(C)=C/[C@H]1CC(C)=C[C@@]2(C=C(CO)[C@@H]3CC(=O)C(C)=C[C@@H]3O2)O1 (some centres unmarked) [Compound 10] |  | Easily Dissolved in Organic Solvent of Acetone, Methanol, DMSO, etc. |  |  |  |  |  |
